From US20050171171A1, “Amide derivatives as FLT-3 modulators” (Ambit Biosciences Corporation, priority 2003, published 2005)

Tests used:
FLT3(DKIN) = target: T1, FLT3(DKIN) (Homo sapiens, UniProt P36888); experiment: Binding Assay: FLT3(DKIN), phage-displayed kinase competition binding (Kd)
T1 construct: 3(DKIN); made in house
T1 sequence (P36888 610-943 limits assumed): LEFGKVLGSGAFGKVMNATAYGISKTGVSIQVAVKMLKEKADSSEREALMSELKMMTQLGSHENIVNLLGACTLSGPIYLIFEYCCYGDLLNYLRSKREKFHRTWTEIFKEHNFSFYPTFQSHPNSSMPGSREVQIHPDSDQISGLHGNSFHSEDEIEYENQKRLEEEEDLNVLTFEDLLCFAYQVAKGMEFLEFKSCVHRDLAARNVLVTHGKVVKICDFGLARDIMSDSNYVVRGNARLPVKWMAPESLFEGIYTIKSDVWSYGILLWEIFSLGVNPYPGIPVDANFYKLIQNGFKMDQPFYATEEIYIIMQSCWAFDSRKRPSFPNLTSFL
Source text: (§1) Binding Constant (Kd) Measurements for Small-Molecule-Kinase Interactions
(§2) The term “ND” represents non-determined values.

MV4,11 cells = experiment: Cell Assay: CS0001, FLT3 assay using MV4,11 cells (MTS proliferation); type: cell-based; conditions: Homo sapiens
Method: The ability of FLT3 kinase inhibitors to inhibit cellular proliferation was also examined. MV4:11 was a cell line derived from a patient with acute myelogenous leukemia. It expressed a mutant FLT3 protein that was constitutively active. […] Inhibition of FLT3 kinase activity prevented proliferation of these cells, and thus the MV4:11 cell line can be used a model for cellular activity of small molecule inhibitors of FLT3.
FLT3 Assay Using MV4,11 Cells
MV4,11 cells were grown in an incubator @ 37° C. in 5% CO2 in Medium 2 (RPM 10% FBS, 4 mM glutamine, Penn/Strep). The cells were counted daily and the cell density was kept between 1e5 and 8e5 cells/ml.
Day One: Enough cells were harvested for experiments to be conducted in 50 ml conical tubes. The harvested cells were spun at 500 g for 5 min at 4° C., the supernatant was then aspirated and the cells were resuspended in the starting volume of 1× PBS. The cells were again spun at 500 g for 5 min at 4° C. and the supernatant again aspirated. The cells were then resuspended in medium 3 (DMEM w/glut, 10% FBS, Penn/Strep) to a density of 4e5 cells/ml and incubated @ 37° C. in 5% CO2 O/N.
Day Two: The cells were counted and enough medium 3 was added to decrease density to 2e5 cells/ml. 50 ul (10,000 cells) was aliquoted into each well of a 96 well optical plate using multichannel pipetman. The compound plate was then set up by aliquoting 3 μl of negative control (DMSO) into column 1 of a 96 well 300 ul polypropylene plate, aliquoting 3 μl of positive control (10 mM AB20121) into column 12 of plate, and aliquoting 3 μl of appropriate compounds from serial dilutions into columns 2-11. To each well, 150 μl of Medium 3 was added and 50 μl of compound/medium mixture from compound plate into rows of optical plate in duplicate. The cells were then incubated @ 37° C. in 5% CO2 for 3 days.
Day Five: MTS was thawed in a H2O bath. 20 μl of MTS was added to each well of optical plate and the cells were incubated @ 37° C. in 5% CO2 for 2 hours. The plate was then placed on a plate shaker for 30 seconds on high speed.

Cell Assay: CS0002 = type: cell-based
FLT3(JMminus) = target: T2, FLT3(JMminus) (Homo sapiens, UniProt P36888); experiment: Binding Assay: FLT3(JMminus), phage-displayed kinase competition binding (Kd)
T2 construct: "FLT 3(JMminus)"; fused on or other part: Fused to a T7 bacteriophage particle (phage display)
T2 sequence (P36888 610-943 limits assumed): T1 sequence (P36888 610-943 limits assumed)
Source text: as §1, §2

Kd (FLT3(DKIN)) [µM]	IC50 (MV4,11 cells) [µM]	IC50 (Cell Assay: CS0002) [µM]	Kd (FLT3(JMminus)) [µM]	SMILES
1 to 10	–	–	–	COc1ccc(CC(=O)Nc2cc(C3CC3)nn2-c2ccccc2)cc1
> 10	–	–	–	COc1cccc2sc(NC(=O)Cc3ccc(OCc4ccccc4)cc3)nc12
1 to 10	1 to 10	–	–	CC(C)(C)c1cc(C(=O)Nc2ccc(OCc3ccccc3F)cc2)no1
0.1 to 1	–	–	–	O=C(Cc1ccc(OCc2ccccc2)cc1)Nc1nc2cc(Cl)ccc2o1
1 to 10	–	–	–	CC(C)(C)c1cc(NC(=O)Sc2ccc(Cl)cc2)no1
< 0.1	< 0.1	–	–	CC(C)(C)c1cc(NC(=O)Cc2ccc(OCc3ccccc3)cc2)on1
> 10	> 10	–	–	CC(C)(C)c1cc(-c2nc(-c3ccc(Cl)cc3)no2)no1
> 10	–	–	–	O=C(Cc1ccc(OCc2ccccc2)cc1)Nc1nc(-c2ccc(Cl)cc2)cs1
< 0.1	–	–	–	CC(C)(C)c1cc(NC(=O)Cc2ccc(Cl)cc2)on1
> 10	–	–	–	O=C(Cc1ccc(OCc2ccccc2)cc1)Nc1nc2ccccc2s1
> 10	1 to 10	–	–	CC(C)(C)c1cc(C(=O)Nc2ccc(OCC3CC3)cc2)no1
< 0.1	–	–	–	COc1ccc(CC(=O)Nc2cc(C(C)(C)C)no2)cc1
–	< 0.1	> 10	< 0.1	Cn1cc(C(=O)Nc2ccc(CC(=O)Nc3cc(C(C)(C)C)on3)cc2)c2ccccc21
1 to 10	–	–	–	COc1ccc(SC(=O)Nc2cc(C(C)(C)C)on2)cc1
–	1 to 10	> 10	0.1 to 1	CC(C)(C)c1cc(NC(=O)Cc2ccc(NC(=O)c3cccc4cccnc34)cc2)no1
–	0.1 to 1	> 10	< 0.1	Cc1nn(C)c(Cl)c1C(=O)Nc1ccc(CC(=O)Nc2cc(C(C)(C)C)on2)cc1

Kd (FLT3(DKIN)) [µM]	IC50 (MV4,11 cells) [µM]	IC50 (Cell Assay: CS0002) [µM]	Kd (FLT3(JMminus)) [µM]	SMILES
> 10	0.1 to 1	–	–	CC(C)(C)c1cc(-c2nc(-c3ccc(OCc4ccccc4F)cc3)no2)no1
> 10	1 to 10	–	–	CC(C)(C)c1cc(-c2nc(-c3ccc(O)cc3)no2)no1
> 10	> 10	–	–	Cc1noc(-c2ccc(-c3noc(-c4cc(C(C)(C)C)on4)n3)cc2)n1
> 10	–	–	–	Cc1csc(NC(=O)Cc2ccc(OCc3ccccc3)cc2)n1
< 0.1	–	–	–	CC(C)(C)c1cc(NC(=O)Cc2ccc(Br)cc2)on1
–	< 0.1	> 10	< 0.1	CC(C)(C)c1cc(NC(=O)Cc2ccc(NC(=O)c3cnc4ccccc4c3)cc2)no1
> 10	–	–	–	Cc1cnc(NC(=O)Cc2ccc(OCc3ccccc3)cc2)s1
–	< 0.1	> 10	< 0.1	CC(C)(C)c1cc(NC(=O)Cc2ccc(NC(=O)c3ccc4cnccc4n3)cc2)no1
< 0.1	–	–	–	CC(C)(C)c1cc(NC(=O)Cc2ccc(F)cc2)on1
–	< 0.1	> 10	< 0.1	CSc1ncc(Br)c(C(=O)Nc2ccc(CC(=O)Nc3cc(C(C)(C)C)on3)cc2)n1
0.1 to 1	–	–	–	CC(C)(C)c1cc(NC(=O)Cc2ccc(O)cc2)no1
> 10	–	–	–	O=C(Cc1ccc(OCc2ccccc2)cc1)Nc1nc2ccc(F)cc2s1
> 10	> 10	–	–	Cc1cc(C)n(C(=O)Nc2ccc(Cl)cc2)n1
0.1 to 1	–	–	–	O=C(Cc1ccc(OCc2ccccc2)cc1)Nc1cc(C2CC2)nn1-c1ccccc1
> 10	0.1 to 1	–	–	Cc1ccc(NC(=O)c2ccc(-c3noc(-c4cc(C(C)(C)C)on4)n3)cc2)cc1
1 to 10	1 to 10	–	–	CC(C)(C)c1cc(/C=N/C(=N\O)c2ccc(Cl)cc2)no1
